The term IC50 denotes the concentration that inhibits the measured activity by half. Broadly, the Ki is a measure of affinity in units of concentration, obtained from inhibition or displacement. The low end stands for higher affinity, the high end for lower affinity. One may read the LD50 as the dose expected to kill half of the subjects tested.

The source of these data is publication PMC9258905, “Discovery of Quercetin and Its Analogs as Potent OXA-48 Beta-Lactamase Inhibitors” (Frontiers in Pharmacology, 2022).

Data set [1] deals with T1, OXA-48 (Klebsiella pneumoniae, UniProt Q6XEC0).
T1 construct: made in house; host or cells: E. coli BL21(DE3)
T1 sequence (Q6XEC0 23-265 limits assumed): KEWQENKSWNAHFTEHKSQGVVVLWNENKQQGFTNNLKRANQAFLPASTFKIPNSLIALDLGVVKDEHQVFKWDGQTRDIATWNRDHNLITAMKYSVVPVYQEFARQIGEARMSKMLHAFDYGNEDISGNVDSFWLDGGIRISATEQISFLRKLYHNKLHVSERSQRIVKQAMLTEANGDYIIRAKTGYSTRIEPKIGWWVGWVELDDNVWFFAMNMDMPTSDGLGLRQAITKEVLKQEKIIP
As to the kind of experiment: Enzyme inhibition assay against purified OXA-48 with nitrocefin as substrate. It counts as biochemical. To be noted: for percent inhibition against OXA-48: at 50 μM compound, nitrocefin substrate, 50 µM; for IC50: purified OXA-48 12 nM, nitrocefin 200 μM, 0.1 M phosphate buffer pH 7.0, 50 mM NaHCO3, 25°C, read-out: IC50 against OXA-48. The protocol:
The inhibitory activity of compounds against the purified OXA-48 was tested on a BioTek HTS reader. The reactions were conducted in 0.1 M phosphate buffer (pH 7.0) supplemented with 50 mM NaHCO3 at 25°C with a final assay volume of 100 μL. The concentrations of enzyme and substrate were 12 nM and 200 μM, respectively. The initial reaction rates in the absence and presence of the compound were monitored at 495 nm in triplicate. The inhibitor concentration causing a 50% decrease in enzyme activity (IC50) was determined by plotting the percent inhibition against the log10 of the inhibitor concentration and fitting the data in a dose–response-inhibition model using GraphPad Prism 7.0.
Quercetin is a member of the flavonoid class with diverse structures obtained from nature, some of which have been used for the treatment of infectious diseases in traditional medical systems ([Farhadi et al., 2019]). To investigate whether quercetin and other flavonoids are OXA-48 inhibitors, the enzyme inhibition assays were conducted on a BioTek HTS reader using nitrocefin as a substrate. The concentrations of enzyme and substrate were 12 nM and 200 μM, respectively. The initial hydrolysis rate of nitrocefin was monitored at 495 nm. The percentage inhibition is defined as the enzyme activity in the absence of inhibitor (100%) minus the remaining activity in the presence of inhibitor.

The target of data set [2] is T1, OXA-48. As to the kind of experiment: Inhibition kinetics (Lineweaver-Burk plots) of OXA-48-catalyzed nitrocefin hydrolysis. In kind it is biochemical. To be noted: for inhibition mode: Lineweaver-Burk plots, Km unchanged, Vmax decreased; for Ki: nitrocefin 25, 50, 75, 100 μM, Lineweaver-Burk. On the procedure: The inhibition mode of quercetin and the inhibition constant (K i) were determined using a Lineweaver–Burk plot by fitting the initial rate versus the substrate concentration at each inhibitor concentration using SigmaPlot 12.0. The nitrocefin concentrations were 25, 50, 75, and 100 μM, respectively. The initial velocity was determined by measuring the […] as described above. All reaction rates were determined in triplicate.
To determine the inhibition mode of the flavonoids, the inhibition kinetics of quercetin, fisetin and luteolin against OXA-48 in the presence of different concentrations of substrate were determined, and the inhibition modes were determined by generating Lineweaver-Burk plots.

The test system of data set [3] is E.coli BW25113 ∆acrA∆bamB (OXA-48). In kind it is cell-based. To be noted: for reduction in the piperacillin MIC: compound at 64 μg/mL; for MIC decrease for imipenem: compound at a dose of 64 μg/mL. The protocol:
The recombinant plasmid containing the Pbla promoter and OXA-48 constructed above was then transformed into BW25113, BW25113 ∆acrA, BW25113 ∆bamB, and BW25113 ∆acrA∆bamB. The above strains were used to study the minimum inhibitory concentration (MIC). Antibiotic susceptibility tests were performed by the microdilution method following Clinical and Laboratory Standards Institute (CLSI) criteria ([CLSI, 2015]). Four E. coli strains expressing OXA-48 were used to assess the inhibitors. The susceptibility to piperacillin/imipenem combined with the compound at a concentration of 16 or 64 μg/mL was determined. […] Each measurement was conducted in triplicate. The fractional inhibitory concentration index (FICI) was determined according to the following formula: FICI = MIC (QT) in combination/MIC (QT) alone + MIC (PIP) in combination/MIC (PIP) alone. The drug interactions are defined as synergistic if the FICI is ≤0.5, indifferent if the FICI is >0.5 and ≤4.0, and antagonistic if the FICI is >4.0.
To investigate whether the compounds could restore the antimicrobial activity of β-lactam, the MICs of β-lactam antibiotics against resistant Gram-negative bacteria in the absence and presence of compounds (fisetin, 3′,4′,7-trihydroxyflavone, luteolin or quercetin) were determined by using published guidelines described by CLSI ([CLSI, 2015]). Specifically, we used OXA-48 producing strains E. coli BW25113, BW25113 ∆acrA, BW25113 ∆bamB, and BW25113 ∆acrA∆bamB as resistant Gram-negative bacteria. […] Imipenem, a carbapenem antibiotic, was applied at increasing concentrations ranging from 0.03 μg/mL to 4 μg/mL. The compounds were tested at 64 and 16 μg/mL.

The test system of data set [4] is cells. To be noted: 50 µM fisetin/luteolin; ref Hytti et al., 2015; cited from earlier work.
The target in data set [5] is T2, OXA-48 β-Lactamase (Klebsiella pneumoniae, UniProt Q6XEC0).
T2 construct: made in house; host or cells: E. coli BL21(DE3)
T2 sequence (Q6XEC0 23-265 limits assumed): as above
Nature of the data set: Partition ratio measurement. In kind it is biochemical. To be noted: OXA-48 12 nM, 1 h incubation; at a 5 μM concentration of quercetin.

Data set [6] deals with T1, OXA-48. As to the kind of experiment: Isothermal titration calorimetry of imipenem hydrolysis by OXA-48. In kind it is biochemical. To be noted: quercetin 0 to 40 µM, imipenem 1 mM, OXA-48 10 nM, 25°C. A general note: Isothermal titration calorimetry measures the heat released or taken up as one component is titrated into another.
Procedure: OXA-48, imipenem, and quercetin were prepared in 30 mM Tris, 5 mM NaHCO3 (pH 7.5) supplemented with 5% DMSO. […] The solutions were degassed by centrifugation at a speed of 14,000 × g for 5 min before injection. The enzyme and inhibitor samples were preincubated for 1 h and then loaded into the sample cell. Imipenem (38 µL) in the syringe was titrated into the sample cell (210 µL) in a single injection mode. Heat flow (μcal/s) was recorded as a function of time. As a negative control, the reaction in the absence of quercetin was measured. The data were collected and analyzed with MicroCal Analysis Launcher Origin 7.0 software.
Isothermal titration calorimetry (ITC) was performed to assess the thermodynamic inhibitory effect of quercetin against OXA-48 ([Zhang et al., 2018]). […] Different concentrations of quercetin were incubated with purified OXA-48 for 1 h in 30 mM Tris, 5 mM NaHCO3 (pH 7.5). The mixtures were loaded into the sample cell (210 µL). A 38 µL of the substrate (imipenem) in the syringe was titrated into the sample cell in a single injection mode.
Data set [7] deals with T1, OXA-48. As to the kind of experiment: Surface plasmon resonance interaction analysis. In kind it is binding. To be noted: 12.5-200 µM quercetin over immobilized OXA-48. On the procedure: Surface plasmon resonance (SPR) experiments were performed on a Biacore T100 at 25°C. The running buffer consisted of 10 mM PBS (pH 7.3), 0.5% Tween-20, and 2.5% DMSO. OXA-48 solution was prepared in a concentration of […] in 10 mM PBS (pH 7.3) and immobilized on a CM5 chip using standard amine coupling to a level of approximately 5000 RU. Quercetin was dissolved in the running buffer and tested in 2-fold dilutions ranging from 12.5 to 200 µM with an injection time of 30 s and a dissociation time of 60 s. The data were analyzed using Biacore T100 Evaluation Software 2.0.
A surface plasmon resonance (SPR) assay was then performed to investigate whether quercetin inhibited the activity of OXA-48 by directly binding to OXA-48. OXA-48 enzyme was immobilized on a CM5 sensor chip with an immobilization level of approximately 5000 RU. Quercetin was injected at different concentrations (12.5, 25, 50, 100 and 200 µM) over the protein surface.

Data set [8] deals with E. coli BW25113 ∆acrA∆bamB (OXA-48). As to the kind of experiment: Growth curve with quercetin alone. To be noted: quercetin at 16 or 64 μg/mL. It counts as cell-based. An excerpt:
We next performed checkerboard microdilution assays against OXA-48-positive strain BW25113 ∆acrA∆bamB (OXA-48) and OXA-48-negative strain ∆acrA∆bamB to assess the synergistic antimicrobial effect. […] The synergy effect was further verified by time-kill curves.
FIGURE 6 (A,B) Heatmap showing the growth inhibition of OXA-48-positive strain E. coli BW25113 ∆acrA∆bamB (OXA-48) (A) and OXA-48-negative strain ∆acrA∆bamB (B) in the presence of quercetin and piperacillin. (C) Time-kill curves for combination therapy of piperacillin and quercetin against E. coli BW25113 ∆acrA∆bamB (OXA-48). The concentrations of piperacillin and quercetin used in the assay were 64 and 64 μg/mL , respectively. (D) The growth curve of E. coli BW25113 ∆acrA∆bamB (OXA-48) in the absence and presence of quercetin.

The test system is the same in data set [9]. As to the kind of experiment: Mouse systemic infection model. In kind it is in vivo, Kunming mice. To be noted: 10 mg/kg each, intravenous, 1 h post infection; organs 24 h post-infection; vs untreated group.
Data set [10] deals with ∆acrA∆bamB (OXA-48) mutant strain. Nature of the data set: Cell-based screen of natural products in the presence of piperacillin. Set-up: species or system E. coli. On the procedure: The ∆acrA∆bamB (OXA-48) mutant strain was then used to screen for inhibitors of OXA-48. […] Approximately 150 plant natural products with a concentration of 40 μg/mL were screened in the presence of 128 μg/mL piperacillin.

Data set [11] relates to mice. To be noted: ref Sullivan et al., 1951, Taepongsorat et al., 2008; cited from earlier work.

Take `O=c1c(O)c(-c2ccc(O)c(O)c2)oc2cc(O)ccc12` [Fisetin]: in data set [1], the “percent inhibition against OXA-48” value is 90% and the IC50 was 470 ± 30 nM. Moreover, the “percent inhibition against OXA-48” value in [1] (listed as fisetin) is listed as “more than 50%”. Besides, in data set [2], the inhibition mode entry was “noncompetitively inhibited” and the Ki was determined as 620 ± 60 nM. In data set [3], the “reduction in the piperacillin MIC” value is given as 2 fold and the “MIC decrease for imipenem” value was determined as 2 fold. Besides, the “toxicity to the cells” value in data set [4] is “no toxicity”.
Regarding `O=c1c(O)c(-c2ccc(O)c(O)c2)oc2cc(O)cc(O)c12` [Quercetin], in [1], the “percent inhibition against OXA-48” value came out at 87% and the IC50 was determined as 1470 ± 140 nM. The “percent inhibition against OXA-48” value in data set [1] (listed as quercetin) is recorded as “more than 50%”. Moreover, in data set [2], the inhibition mode entry is “noncompetitively inhibited” and affinity was put at a Ki of 1310 ± 210 nM. Moreover, the “partition ratio (I:E for greater than 90% inhibition)” value in data set [5] is “approximately 420”. Moreover, the “reversibility of inhibition (total heat of imipenem hydrolysis)” value in data set [6] is on record as “reversibly inhibited OXA-48”. Moreover, the “SPR interaction with OXA-48” value in data set [7] is given as “dose-dependent interaction”. For the same compound, in data set [3], the “reduction in the piperacillin MIC” value was found to be 8 fold and the “MIC decrease for imipenem” value is 2 fold. Moreover, the “growth of the cells” value in [8] was “did not inhibit the growth of the cells”. In addition, the “bacterial load in spleen and liver” value in data set [9] is “did not show a significant reduction of bacterial load”. In addition, the “restoration of antibiotic activity in screen” value in [10] (40 μg/mL compound with 128 μg/mL piperacillin) is on record as “restored antibiotic activity”. Besides, the “bactericidal effect of the compound itself” value in data set [10] (in the absence of piperacillin) was “without bactericidal effect”. In [11], the LD50 is 160 mg/kg.
